Assay results taken from patent US9708312B2, “Dihydropyrimidinoisoquinolinones and pharmaceutical compositions thereof for the treatment of inflammatory disorders (GPR84 antagonists)” (GALAPAGOS NV, priority 2012, dated 2017).

Target: T1, GPR84 (Homo sapiens, UniProt Q9NQS5)
T1 construct: expressed in transfected cells
Assay: GPR84 [35S]GTPγS binding assay, HEPES buffer
Type: biochemical
Settings: 3,3′ di indolylmethane at EC80, membranes from stable cell line over expressing GPR84
Experimental: 1.1. Cell Based Assay: GTp-γ S Binding Assay.
The following assay can be used for determination of GPR84 activation.
The assay is performed in a 96 well plate where the following reagents are added. […] In a last step, 30 μL of a mixture consisting of membranes-GTPγS-SpA beads is added [mixture consists of 20 μg/well membranes derived from stable cell line over expressing GPR84 (membranes are pre-incubated with 0.1 μM GDP for 15 min at 4° C.), 0.1 nM [^35S]GTPγS (Perkin Elmer, NEG030) and 0.5 mg/well PVT-WGA SpA beads (Perkin Elmer, RPNQ0001)]. All components are diluted in assay buffer containing 20 mM HEPES pH 7.4; 5 mM MgCl2; 250 mM NaCl; 0.05% BSA; 75 ug/mL saponin Reactions are incubated for 90 min at room temperature followed by centrifugation at 2000 rpm during 15 min. Plates are read on a Topcount reader (Perkin Elmer) immediately after centrifugation (readout time, 1 min/well).

T1 sequence (Q9NQS5 whole entry): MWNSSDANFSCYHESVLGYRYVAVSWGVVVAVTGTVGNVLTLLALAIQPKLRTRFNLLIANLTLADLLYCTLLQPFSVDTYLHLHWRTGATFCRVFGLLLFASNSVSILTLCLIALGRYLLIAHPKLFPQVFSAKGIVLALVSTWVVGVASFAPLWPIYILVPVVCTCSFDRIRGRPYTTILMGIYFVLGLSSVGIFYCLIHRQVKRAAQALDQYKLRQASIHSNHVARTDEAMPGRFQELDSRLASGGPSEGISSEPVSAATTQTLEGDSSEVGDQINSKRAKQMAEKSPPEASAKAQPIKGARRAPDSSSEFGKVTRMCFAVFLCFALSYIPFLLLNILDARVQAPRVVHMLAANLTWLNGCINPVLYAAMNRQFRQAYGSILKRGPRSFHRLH

| SMILES | IC50 [nM] |
| --- | --- |
| COc1ccc2c(c1)CCn1c-2cc(OCC2Cc3ccccc3O2)nc1=O (centres unmarked) [compound 5, 2-(2,3-dihydro-benzofuran-2-ylmethoxy)-9-methoxy-6,7-dihydro-pyrimido[6,1-a]isoquinolin-4-one] | 500 to 1000 |
| O=c1nc(OCC2CCCO2)cc2n1CCc1cc(OCCOCc3ccccc3)ccc1-2 (centres unmarked) [compound 51, 9-(2-benzyloxy-ethoxy)-2-(tetrahydro-furan-2-ylmethoxy)-6,7-dihydro-pyrimido[6,1-a]isoquinolin-4-one] | 0.01 to 100 |
| O=c1nc(OCC2COc3ccccc3O2)cc2n1CCc1cc(OCC3CCCO3)ccc1-2 (centres unmarked) [compound 54, 2-(2,3-dihydro-benzo[1,4]dioxin-2-ylmethoxy)-9-(tetrahydro-furan-2-ylmethoxy)-6,7-dihydro-pyrimido[6,1-a]isoquinolin-4-one] | 0.01 to 100 |
| Cn1cc(-c2ccc3c(c2)CCn2c-3cc(OCC3COc4ncccc4O3)nc2=O)cn1 (centres unmarked) [compound 149, 2-(2,3-dihydro-[1,4]dioxino[2,3-b]pyridin-2-ylmethoxy)-9-(1-methyl-1H-pyrazol-4-yl)-6,7-dihydro-pyrimido[6,1-a]isoquinolin-4-one] | 0.01 to 100 |
| O=c1nc(OCC2CCCO2)cc2n1CCc1cc(OCc3ccccc3Cl)ccc1-2 (centres unmarked) [compound 23, 9-(2-chloro-benzyloxy)-2-(tetrahydro-furan-2-ylmethoxy)-6,7-dihydro-pyrimido[6,1-a]isoquinolin-4-one] | 100 to 500 |
| CC(C)N(C)C(=O)COc1ccc2c(c1)CCn1c-2cc(OCC2COc3ccccc3O2)nc1=O (centres unmarked) [compound 67, 2-[2-(2,3-Dihydro-benzo[1,4]dioxin-2-ylmethoxy)-4-oxo-6,7-dihydro-4H-pyrimido[6,1-a]isoquinolin-9-yloxy]-N-isopropyl-N-methyl-acetamide] | 0.01 to 100 |
| O=c1nc(OCC2COc3ncccc3O2)cc2n1CCc1cc(OCc3noc(C4CC4)n3)ccc1-2 (centres unmarked) [compound 156, 9-(5-cyclopropyl-[1,2,4]oxadiazol-3-ylmethoxy)-2-(2,3-dihydro-[1,4]dioxino[2,3-b]pyridin-2-ylmethoxy)-6,7-dihydro-pyrimido[6,1-a]isoquinolin-4-one] | 0.01 to 100 |
| O=c1nc(OCC2COc3ccccc3O2)cc2n1CCc1cc(OCCN3CCCC3)ccc1-2 (centres unmarked) [compound 79, 2-(2,3-dihydro-benzo[1,4]dioxin-2-ylmethoxy)-9-(2-pyrrolidin-1-yl-ethoxy)-6,7-dihydro-pyrimido[6,1-a]isoquinolin-4-one] | 100 to 500 |
| COc1cccc(OCCOc2ccc3c(c2)CCn2c-3cc(OCC3CCCO3)nc2=O)c1 (centres unmarked) [compound 41, 9-[2-(3-methoxy-phenoxy)-ethoxy]-2-(tetrahydro-furan-2-ylmethoxy)-6,7-dihydro-pyrimido[6,1-a]isoquinolin-4-one] | 0.01 to 100 |
| O=c1nc(OCC2COc3ccccc3O2)cc2n1CCc1cc(OCc3nnnn3C3CC3)ccc1-2 (centres unmarked) [compound 75, 9-(1-cyclopropyl-1H-tetrazol-5-ylmethoxy)-2-(2,3-dihydro-benzo[1,4]dioxin-2-ylmethoxy)-6,7-dihydro-pyrimido[6,1-a]isoquinolin-4-one] | 0.01 to 100 |
| O=c1nc(OCC2COc3ccccc3O2)cc2n1CCc1cc(OCCN3CCOCC3)ccc1-2 (centres unmarked) [compound 71, 2-(2,3-dihydro-benzo[1,4]dioxin-2-ylmethoxy)-9-(2-morpholin-4-yl-ethoxy)-6,7-dihydro-pyrimido[6,1-a]isoquinolin-4-one] | 0.01 to 100 |

Other lines, results leading:

| IC50 [nM] | SMILES |
| --- | --- |
| 0.01 to 100 | COC(=O)c1cccc(COc2ccc3c(c2)CCn2c-3cc(OCC3CCCO3)nc2=O)c1 (centres unmarked) [compound 27, 3-[4-oxo-2-(tetrahydro-furan-2-ylmethoxy)-6,7-dihydro-4H-pyrimido[6,1-a]isoquinolin-9-yloxymethyl]-benzoic acid methyl ester] |
| 0.01 to 100 | O=C(COc1ccc2c(c1)CCn1c-2cc(OCC2CCCO2)nc1=O)Nc1ccccc1 (centres unmarked) [compound 63, 2-[4-oxo-2-(tetrahydro-furan-2-ylmethoxy)-6,7-dihydro-4H-pyrimido[6,1-a]isoquinolin-9-yloxy]-N-phenyl-acetamide] |
| 0.01 to 100 | Cc1nc(COc2ccc3c(c2)CCn2c-3cc(OCC3COc4ncccc4O3)nc2=O)no1 (centres unmarked) [compound 154, 2-(2,3-dihydro-[1,4]dioxino[2,3-b]pyridin-2-ylmethoxy)-9-(5-methyl-[1,2,4]oxadiazol-3-ylmethoxy)-6,7-dihydro-pyrimido[6,1-a]isoquinolin-4-one] |
| 0.01 to 100 | CN(C)CC#Cc1ccc2c(c1)CCn1c-2cc(OCC2COc3ncccc3O2)nc1=O (centres unmarked) [compound 172, 2-(2,3-dihydro-[1,4]dioxino[2,3-b]pyridin-2-ylmethoxy)-9-(3-dimethylamino-prop-1-ynyl)-6,7-dihydro-pyrimido[6,1-a]isoquinolin-4-one] |
| 0.01 to 100 | CCOC(=O)c1ccc(COc2ccc3c(c2)CCn2c-3cc(OCC3COc4ccccc4O3)nc2=O)o1 (centres unmarked) [compound 85, 5-[2-(2,3-dihydro-benzo[1,4]dioxin-2-ylmethoxy)-4-oxo-6,7-dihydro-4H-pyrimido[6,1-a]isoquinolin-9-yloxymethyl]-furan-2-carboxylic acid ethyl ester] |
| 100 to 500 | CN1CCCC1CCOc1ccc2c(c1)CCn1c-2cc(OCC2COc3ccccc3O2)nc1=O (centres unmarked) [compound 83, 2-(2,3-dihydro-benzo[1,4]dioxin-2-ylmethoxy)-9-[2-(1-methyl-pyrrolidin-2-yl)-ethoxy]-6,7-dihydro-pyrimido[6,1-a]isoquinolin-4-one] |
| 0.01 to 100 | COc1ncccc1-c1ccc2c(c1)CCn1c-2cc(OCC2COc3ncccc3O2)nc1=O (centres unmarked) [compound 145, 2-(2,3-dihydro-[1,4]dioxino[2,3-b]pyridin-2-ylmethoxy)-9-(2-methoxy-pyridin-3-yl)-6,7-dihydro-pyrimido[6,1-a]isoquinolin-4-one] |
| 0.01 to 100 | O=c1nc(OCC2COc3ncccc3O2)cc2n1CCc1cc(C#CC3CC3)ccc1-2 (centres unmarked) [compound 141, 9-cyclopropylethynyl-2-(2,3-dihydro-[1,4]dioxino[2,3-b]pyridin-2-ylmethoxy)-6,7-dihydro-pyrimido[6,1-a]isoquinolin-4-one] |
| 0.01 to 100 | O=c1nc(OCC2COc3ncccc3O2)cc2n1CCc1cc(-c3ccc(N4CCOCC4)nc3)ccc1-2 (centres unmarked) [compound 165, 2-(2,3-dihydro-[1,4]dioxino[2,3-b]pyridin-2-ylmethoxy)-9-(6-morpholin-4-yl-pyridin-3-yl)-6,7-dihydro-pyrimido[6,1-a]isoquinolin-4-one] |
| 100 to 500 | O=c1nc(OCC2COc3ncccc3O2)cc2n1CCc1cc(CN3CCCC3)ccc1-2 (centres unmarked) [compound 197, 2-(2,3-dihydro-[1,4]dioxino[2,3-b]pyridin-2-ylmethoxy)-9-pyrrolidin-1-ylmethyl-6,7-dihydro-pyrimido[6,1-a]isoquinolin-4-one] |
| 0.01 to 100 | O=C(COc1ccc2c(c1)CCn1c-2cc(OCC2COc3ccccc3O2)nc1=O)Nc1ccccc1 (centres unmarked) [compound 68, 2-[2-(2,3-dihydro-benzo[1,4]dioxin-2-ylmethoxy)-4-oxo-6,7-dihydro-4H-pyrimido[6,1-a]isoquinolin-9-yloxy]-N-phenyl-acetamide] |
| 0.01 to 100 | O=c1nc(OCC2CCCO2)cc2n1CCc1cc(OCc3ccc([N+](=O)[O-])cc3)ccc1-2 (centres unmarked) [compound 33, 9-(4-nitro-benzyloxy)-2-(tetrahydro-furan-2-ylmethoxy)-6,7-dihydro-pyrimido[6,1-a]isoquinolin-4-one] |
